Source: patent US20040086995A1, “Beta1, 4-N-Acetylgalactosaminyltransferases, nucleic acids and methods of use thereof” (priority 2002, published 2004)

Assays:
SH-Ceβ4GalNAcT [1] = target: T1, SH-Ceβ4GalNAcT (Caenorhabditis elegans, UniProt Q9GUM2); assay: β4GalNAcT assay, sugar nucleotide (donor) specificity; format: biochemical, C. elegans; conditions: for Relative activity (%): acceptor GlcNAcβ-S-pNP 1 mM, donor 0.5 mM, enzyme on HPC4-beads, 100% = UDP-GalNAc
T1 construct: the catalytic domain of the Ceβ4GalNAcT (beginning at K34, the first amino acid after the transmembrane domain); signal peptide (from vector pcDNA3.1(+)-TH) (N); made in house; host or cells: CHO-Lec8 (and CHO-Lec2) cells, stably transfected; enzyme captured from the culture medium on HPC4-UltraLink beads
T1 sequence (Q9GUM2 30-383 limits assumed): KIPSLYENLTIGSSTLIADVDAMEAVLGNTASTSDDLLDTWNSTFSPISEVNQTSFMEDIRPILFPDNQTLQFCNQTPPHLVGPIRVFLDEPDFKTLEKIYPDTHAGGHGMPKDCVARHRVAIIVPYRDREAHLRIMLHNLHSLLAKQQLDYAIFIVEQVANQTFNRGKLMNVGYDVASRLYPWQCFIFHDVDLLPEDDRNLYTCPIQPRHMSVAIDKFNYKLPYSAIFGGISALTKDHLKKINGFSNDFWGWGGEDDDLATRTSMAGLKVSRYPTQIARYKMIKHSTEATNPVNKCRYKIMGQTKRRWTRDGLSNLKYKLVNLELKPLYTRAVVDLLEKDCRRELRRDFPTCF
Procedure: (§1) Purification of SH-C.E.β4GalNAcT—Medium containing SH-Ceβ4GalNAcT was centrifuged at 1,500×g for 5 min to remove cellular debris, and then incubated with HPC4-UltraLink beads (5 mg HPC4 antibody per ml of beads; 0.1 ml of beads per ml of medium) for one hour at room temperature on a rotating platform. The beads were collected by centrifugation at 600×g for 3 min, and washed three times with 10 ml of 100 mM sodium cacodylate pH 7.0, 2 mM CaCl2. The beads were then resuspended in the same buffer with the addition of 20 mM MnCl2, and used as the enzyme source. For Western blot analysis, the bound material was released by incubating the beads in a buffer of 50 mM sodium cacodylate pH 7.0, 20 mM EDTA for 10 min at room temperature, then collecting the supernatant.
(§2) β4GalNAcT assays—Standard assays were performed essentially as described previously (40) in a […] reaction mixture containing […] sodium cacodylate pH 7.2, 12.5 nmol UDP-[^3H]GalNAc (2.5 Ci/mol), […] MnCl2, […] ATP, […] Triton X-100, […] beads and acceptor substrate, containing 25 nmol of terminal GlcNAc at the non-reducing end unless otherwise indicated. Control assays lacking the acceptor substrate were carried out to correct for incorporation into endogenous acceptors, and all assays were carried out in duplicate. After incubation at 37° C. for 180 min the reaction was stopped. When oligosaccharides or glycopeptides were the acceptor, the labeled product was separated from unincorporated label by chromatography on a 1-ml column of Dowex 1-X8 (Cl^−-form) according to Easton et al., (44). When oligosaccharide acceptors with hydrophobic aglycon (pNP) were used as the acceptor, the product was isolated using Sep-pak C-18 cartridges (Waters) as described (45). The isolated products were assayed for incorporation of radioactivity by liquid scintillation.

SH-Ceβ4GalNAcT [2] = target: T1, SH-Ceβ4GalNAcT; assay: β4GalNAcT assay, acceptor specificity; format: biochemical, C. elegans
Procedure: as §1
β4GalNAcT assays—Standard assays were performed essentially as described previously (40) in a […] reaction mixture containing […] sodium cacodylate pH 7.2, 12.5 nmol UDP-[^3H]GalNAc (2.5 Ci/mol), […] MnCl2, […] ATP, […] Triton X-100, […] beads and acceptor substrate, containing 25 nmol of terminal GlcNAc at the non-reducing end unless otherwise indicated. Control assays lacking the acceptor substrate were carried out to correct for incorporation into endogenous acceptors, and all assays were carried out in duplicate. […] The isolated products were assayed for incorporation of radioactivity by liquid scintillation.

SH-Ceβ4GalNAcT [3] = target: T1, SH-Ceβ4GalNAcT; assay: β4GalNAcT assay, effect of α-lactalbumin on acceptor use; format: biochemical, C. elegans; conditions: for Relative activity (%): UDPGalNAc 0.5 mM, GlcNAc 1 mM or Glc 30 mM
Procedure: as §1, §2

[4] = target: SH-Ceβ4GalNAcT (soluble, HPC4-epitope tagged form of C. elegans UDPGalNAc:GlcNAcβ-R β1,4-N-acetylgalactosaminyltransferase, encoded by Y73E7A.7) (C. elegans); assay: cell-based or functional assay
SH-Ceβ4GalNAcT (soluble, HPC4-epitope tagged form of C. elegans UDPGalNAc:GlcNAcβ-R β1,4-N-acetylgalactosaminyltransferase, encoded by Y73E7A.7) (C. elegans), sequence (Q9GUM2 34-383): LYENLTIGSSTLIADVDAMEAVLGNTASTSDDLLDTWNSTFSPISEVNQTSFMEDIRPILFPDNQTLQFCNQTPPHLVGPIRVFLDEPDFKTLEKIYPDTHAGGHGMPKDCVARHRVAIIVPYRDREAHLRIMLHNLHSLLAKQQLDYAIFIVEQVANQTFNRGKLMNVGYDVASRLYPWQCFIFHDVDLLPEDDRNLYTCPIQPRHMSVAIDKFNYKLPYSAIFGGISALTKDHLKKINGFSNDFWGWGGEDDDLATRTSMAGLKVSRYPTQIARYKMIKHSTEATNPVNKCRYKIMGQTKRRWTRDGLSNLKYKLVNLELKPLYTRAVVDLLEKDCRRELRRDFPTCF

For `CC(=O)N[C@H]1[C@@H](OP(=O)(O)OP(=O)(O)OC[C@H]2O[C@@H](n3ccc(=O)[nH]c3=O)[C@H](O)[C@@H]2O)O[C@H](CO)[C@H](O)[C@@H]1O` [UDP-GalNAc], the “utilization as nucleotide-sugar donor” value (SH-Ceβ4GalNAcT [1]) was “efficiently utilized” and the “Relative activity (%)” value (SH-Ceβ4GalNAcT [1]) was 100%.

With `CC(=O)N[C@@H]1[C@@H](O)[C@H](O)[C@@H](CO)O[C@H]1O` [Acceptor 9, GlcNAc] the “utilization as acceptor substrate” value (SH-Ceβ4GalNAcT [2]) was “efficiently utilized”, the “Relative activity (%)” value (SH-Ceβ4GalNAcT [3]; with a-Lactalbumin 5 mg/ml) was 40% and the “Relative activity (%)” value (SH-Ceβ4GalNAcT [3]; without a-Lactalbumin) was 100%.

`OC[C@H]1OC(O)[C@H](O)[C@@H](O)[C@@H]1O` (stereo partly drawn) [Glc] was tested, and the “Relative activity (%)” value (SH-Ceβ4GalNAcT [3]; with a-Lactalbumin 5 mg/ml) was 6% and the “Relative activity (%)” value (SH-Ceβ4GalNAcT [3]; without a-Lactalbumin) was 3%.

With α-lactalbumin the Relative activity (%) of SH-Ceβ4GalNAcT with Glc (30 mM) as acceptor in the presence of a-lactalbumin (5 mg/ml); 3 without it [4] was 6% and the Relative activity (%) of SH-Ceβ4GalNAcT with GlcNAc (1 mM) as acceptor in the presence of a-lactalbumin (5 mg/ml); 100 without it [4] was 40%.

In the case of `CC(=O)N[C@H]1[C@@H](OP(=O)(O)OP(=O)(O)OC[C@H]2O[C@@H](n3ccc(=O)[nH]c3=O)[C@H](O)[C@@H]2O)O[C@H](CO)[C@@H](O)[C@@H]1O` [UDP-GlcNAc], the “utilization as nucleotide-sugar donor” value (SH-Ceβ4GalNAcT [1]) is reported as “did not significantly utilize” and the “Relative activity (%)” value (SH-Ceβ4GalNAcT [1]) is reported as 0.7%.

B1: a-lactalbumin: modifier protein expressed in lactating mammary glands, associates with β4GalT I and switches its acceptor specificity (protein, UniProt P00709 20-142, looked up)
Alpha-lactalbumin: KQFTKCELSQLLKDIDGYGGIALPELICTMFHTSGYDTQAIVENNESTEYGLFQISNKLWCKSSQVPQSRNICDISCDKFLDDDITDDIMCAKKILDIKGIDYWLAHKALCTEKLEQWLCEKL
B1 was tested, and the “effect of α-lactalbumin on acceptor specificity” value (SH-Ceβ4GalNAcT [3]) was “did not induce SH-Ceβ4GalNAcT to utilize Glc as an acceptor instead of GlcNAc”.
